From the supplement of paper PMC10307832

What was measured:
Assay in all cases: relative viability (nuclei count vs DMSO), 5 days (fraction); higher = more cells survive
[1] = compound: C1COCCN1C2=NC(=NC3=C2OC4=C3C=CC=N4)C5=CC(=CC=C5)NC(=O)C6=CN=C(C=C6)N + O=C(CCCCCCC(=O)Nc1ccccc1)NO [Vorinostat] (partner 1 µM)
How it was run: (§1)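 A single step with final 0.05% Triton X-100, 1% formaldehyde and 1 ug/ml Hoechst fixed the cells and stained nuclei 5 days after treatment. Lung cancer cell lines in 1536-well plates had been treated by pin tool the day after seeding with one drug alone or a fixed anchor-drug dose plus five library-drug doses (not always all listed) in √10 steps, and nuclei were counted on 4× images. Relative viability is the ratio of nuclei in treated wells to nuclei in vehicle wells, taken as the median of duplicate plates.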

[2] = compound: Nc1ccccc1NC(=O)c1ccc(CNC(=O)OCc2cccnc2)cc1 [Entinostat] + COc1cccc2cc(-c3nc([C@H]4CC[C@H](C(=O)O)CC4)n4ncnc(N)c34)[nH]c12 [OSI-027] (partner 0.5 µM)
How it was run: as §1

[3] = compound: Nc1ccccc1NC(=O)c1ccc(CNC(=O)OCc2cccnc2)cc1 [Entinostat] + C[C@@H](Oc1cc(-c2cnn(C3CCNCC3)c2)cnc1N)c1c(Cl)ccc(F)c1Cl [Crizotinib] (partner 1 µM)
How it was run: as §1

Cell Line	relative viability ([1]; first compound 0.02 µM)	relative viability ([1]; first compound 0.06325 µM)	relative viability ([1]; first compound 0.2 µM)	relative viability ([1]; first compound 0.6325 µM)	relative viability ([1]; first compound 2 µM)	relative viability ([2]; first compound 0.02 µM)	relative viability ([2]; first compound 0.06325 µM)	relative viability ([2]; first compound 0.2 µM)	relative viability ([2]; first compound 0.6325 µM)	relative viability ([2]; first compound 2 µM)	relative viability ([3]; first compound 0.02 µM)	relative viability ([3]; first compound 0.06325 µM)	relative viability ([3]; first compound 0.2 µM)	relative viability ([3]; first compound 0.6325 µM)	relative viability ([3]; first compound 2 µM)
NCI-H1437	0.82	0.919	0.818	0.816	0.432	0.786	0.581	0.306	0.218	0.203	0.801	0.641	0.469	0.174	0.109
EKVX	0.698	0.794	0.678	0.644	0.556	0.751	0.738	0.805	0.511	0.318	0.81	0.977	1.03	0.819	0.432
NCI-H460	1.51	0.788	0.907	0.559	0.221	0.606	0.575	0.335	0.0521	0.0268	0.907	0.945	0.522	0.0251	0.0158
NCI-H1993	0.831	0.701	0.634	0.723	0.563	0.484	0.586	0.53	0.552	0.653	0.832	0.848	0.774	0.76	0.597
HCC-78	0.444	0.5	0.431	0.326	0.334	0.402	0.33	0.351	0.344	0.261	0.37	0.293	0.234	0.163	0.141
NCI-H2087	0.611	0.911	0.842	0.724	0.199	0.666	0.509	0.376	0.27	0.213	0.716	0.672	0.818	0.559	0.467
H3255	0.814	0.744	0.788	0.781	0.698	0.589	0.582	0.503	0.309	0.232	0.9	0.747	0.777	0.452	0.286
NCI-H2126	0.707	0.941	0.758	0.786	0.582	0.725	0.699	0.712	0.402	0.308	1.01	1.06	0.954	0.89	0.58
LCLC-103H	0.806	0.804	0.699	0.728	0.698	0.473	0.555	0.504	0.393	0.279	0.968	1.03	0.992	0.801	0.631
RERF-LC-KJ	0.696	0.782	0.653	0.603	0.598	0.582	0.591	0.6	0.326	0.264	0.844	0.75	0.754	0.431	0.233
EBC-1											0.177	0.191	0.215	0.202	0.159
HCC-15	0.859	0.929	0.881	0.792	0.575	0.669	0.617	0.583	0.347	0.239	0.792	0.744	0.745	0.548	0.307
NCI-H1650	0.512	0.611	0.406	0.642	0.354	0.73	0.585	0.589	0.349	0.184	0.923	0.928	0.988	0.729	0.359
COR-L 105	0.787	0.839	0.701	0.768	0.603	0.735	0.875	0.977	0.688	0.297	0.92	0.778	0.655	0.494	0.216
NCI-H596	0.618	0.551	0.642	0.489	0.465	0.716	0.804	0.708	0.443	0.412	1	0.982	0.992	0.978	0.52
LXF-289	0.792	0.895	0.619	0.821	0.547	0.795	0.765	0.894	0.582	0.395	0.789	0.806	0.788	0.669	0.331
NCI-H1703											0.674	0.786	0.884	0.415	0.358
NCI-H2170	0.93	0.997	0.643	0.729	0.518	0.745	0.65	0.742	0.607	0.373	1.17	1.06	1.02	0.704	0.491
NCI-H522	0.831	0.844	0.925	0.865	0.798	0.84	0.764	0.85	0.688	0.555					
LOU-NH91	0.95	0.975	0.926	0.86	0.78	0.719	0.761	0.708	0.652	0.585	0.705	0.754	0.757	0.742	0.678
NCI-H1355	0.695	0.737	0.614	0.598	0.538	0.476	0.434	0.397	0.27	0.252	1.06	1.01	0.9	0.743	0.599

Cell Line	relative viability ([1]; first compound 0.02 µM)	relative viability ([1]; first compound 0.06325 µM)	relative viability ([1]; first compound 0.2 µM)	relative viability ([1]; first compound 0.6325 µM)	relative viability ([1]; first compound 2 µM)	relative viability ([2]; first compound 0.02 µM)	relative viability ([2]; first compound 0.06325 µM)	relative viability ([2]; first compound 0.2 µM)	relative viability ([2]; first compound 0.6325 µM)	relative viability ([2]; first compound 2 µM)	relative viability ([3]; first compound 0.02 µM)	relative viability ([3]; first compound 0.06325 µM)	relative viability ([3]; first compound 0.2 µM)	relative viability ([3]; first compound 0.6325 µM)	relative viability ([3]; first compound 2 µM)
NCI-H322M	0.823	0.85	0.851	0.904	0.764	0.608	0.54	0.558	0.483	0.371	1.03	0.961	0.98	0.809	0.651
NCI-H1395	0.66	0.727	0.542	0.637	0.595	0.716	0.764	0.583	0.647	0.505					
NCI-H2023	0.602	0.747	0.506	0.623	0.319	0.287	0.29	0.264	0.12	0.0886	0.526	0.596	0.324	0.17	0.109
NCI-H1666	1.07	1.09	0.966	0.736	0.865	0.906	0.897	0.859	0.618	0.606	0.973	1.16	0.843	0.404	0.321
HARA	0.463	0.597	0.51	0.431	0.361	0.448	0.529	0.551	0.299	0.194	1.02	1.02	1.05	0.974	0.565
NCI-H1944	0.533	0.65	0.5	0.485	0.477	0.382	0.404	0.362	0.233	0.208	0.971	0.756	0.629	0.344	0.249
NCI-H2405	1.07	1.07	1.03	0.921	0.645	0.574	0.652	0.582	0.567	0.414	0.85	0.887	0.906	0.805	0.598
201T	0.964	1.03	0.931	0.94	0.769	0.92	0.726	0.619	0.548	0.45	1.03	1.03	0.919	0.743	0.754
PC-3 [JPC-3]	0.729	0.678		0.662	0.638	0.761	0.745	0.57	0.432	0.306	0.965	1.01	0.79	0.658	0.44
Calu-6											0.738	0.713	0.755	0.494	0.317
NCI-H1734	0.815	0.858	0.612	0.706	0.522	0.635	0.772	0.59	0.5	0.488	0.622	0.709	0.894	0.555	0.423
NCI-H2342	0.821	0.876	0.849	0.756	0.627	0.651	0.587	0.629	0.598	0.524					
NCI-H1563						0.723	0.687	0.707	0.653	0.547	0.781	0.907	0.759	0.711	0.735
IA-LM	0.855	1.03	1.08	0.44	0.401						0.731	0.855	0.928	0.728	0.651
NCI-H1299											0.904	0.925	0.91	0.767	0.561
NCI-H1623						0.445	0.565	0.429	0.298	0.339					
SW 900	0.455	0.573	0.488	0.425	0.392	0.696	0.659	0.647	0.319	0.397					
NCI-H1648	0.313	0.306	0.42	0.281	0.294	0.247	0.27	0.257	0.271	0.296					
NCI-H1793	0.61	0.846	0.571	0.59	0.574	0.291	0.316	0.285	0.2	0.204					
A549											0.775	0.863	0.743	0.449	0.111
NCI-H1792						0.752	0.753	0.609	0.569	0.43	0.979	1.04	0.86	0.796	0.569
